Measured values from US9757424B2, “Compositions and methods of treating gliomas” (BioMed Valley Discoveries, Inc., priority 2011, dated 2017).

Experiments:
[1] = tested on: U87MG human glioblastoma xenografts; experiment: U87MG human glioblastoma xenograft, tumor growth delay, 49-day study (Example 2);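 also: female athymic nude mice with subcutaneous tumors, groups of ten, tumors measured twice weekly, endpoint at 2000 mm^3 tumor volume or Day 49, treated compared with control mice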
Procedure: The experiment consisted of groups (n=10) of female athymic nude mice bearing subcutaneous U87MG xenografts (75-144 mm^3) on Day 1. Candesartan was evaluated as monotherapies at dosages of 1, 5, 10 and 50 mg/kg administered intraperitoneally (i.p.) on a once daily for twenty-one days (qd×21) schedule. […] Dosing was initiated on Day 1, and tumors were measured twice each week until the study was ended on Day 49. Animals were monitored individually and each mouse was euthanized for endpoint when its tumor attained a volume of 2000 mm^3 (about 2 grams) or on the final day (Day 49), whichever came first. Tumor samples were collected at endpoint, and histopathology analyses were performed.
The time to endpoint (TTE) was calculated for each mouse. Treatment outcome was determined from percent tumor growth delay (% TGD), defined as the percent increase in median TTE of treated versus control mice, with differences in the TTE values between groups deemed statistically significant at P 0.05 using logrank survival analysis. Animals were also monitored for partial regression (PR) and complete regression (CR) responses. Treatment tolerability was assessed by body weight measurements and frequent observation for signs of treatment-related (TR) toxicity.
Treatment response was determined from an analysis of percent tumor growth delay (% TGD), defined as the percent increase in the median time to endpoint (TTE) in treated versus control mice; by logrank significance of differences in survival among treatment groups; and by regression responses. Plots of group mean tumor growth were also considered. Treatment tolerability was assessed by body weight measurements and frequent observation for clinical symptoms of treatment-related (TR) side effects.
Xenografts were initiated with U87MG human glioblastomas (Piedmont Research Center, Morrisville, N.C.) by serial subcutaneous transplantation in athymic nude mice. Each test mouse received a U87MG tumor fragment (1 mm^3) implanted subcutaneously in the right flank, and the growth of tumors was monitored as the average size approached the target range of 80 to 120 mm^3. […] Tumor volume was calculated using the formula: Tumor Volume (mm^3)=w^2×l/2 where w=width and l=length in mm of a U87MG tumor. Tumor weight may be estimated with the assumption that 1 mg is equivalent to 1 mm^3 of tumor volume. Therapeutic Agents
Doses of valsartan and candesartan were each formulated weekly, and were stored at 4° C. Valsartan dosing solutions were formulated at concentrations of 15 and 3 mg/mL to yield the desired 150 and 30 mg/kg dosages, respectively, in a dosing volume of 0.2 mL per 20 grams body weight (10 mL/kg). The required amount of valsartan powder for the 15 mg/mL solution was suspended in sterile saline, then dissolved with 0.1 N NaOH and pH adjusted to 7.4 with 0.1 N HCl. The 3 mg/mL valsartan dosing solution was prepared by diluting an aliquot of the 15 mg/mL valsartan solution with sterile saline. Candesartan doses were formulated in 0.5% carboxymethyl cellulose (CMC) in deionized water at concentrations of 5, 1, 0.5 and 0.1 mg/mL to yield the desired 50, 10, 5 and 1 mg/kg dosages, respectively, in a dosing volume of 10 mL/kg.
Each test agent was administered intraperitoneally (i.p.) once daily for twenty-one days (qd×21), unless otherwise indicated.
Group 1 was not treated and served as the control group for calculation of % TGD. […] Groups 4-7 received candesartan at 50, 10, 5 or 1 mg/kg, respectively. […] All doses were scaled to the body weights of the individual animals.
Tumors were measured twice each week using calipers.

[2] = tested on: U87MG tumor fragments; experiment: animal or person; conditions: for combination effect with temozolomide (median group tumor burden at Day 36): dosed in combination with 5 mg/kg temozolomide, FIG. 19
Procedure: HRLN female nu/nu mice were seeded with 1 mm^3 U87MG tumor fragments subcutaneously in the flank. Final caliper and body weight measurements were taken on the last day of the study.
All animals were assessed periodically for body weight, as well as tumor burden, using standard protocols with mechanical calipers. […] Dosing was stopped for any group with two measurements of mean body weight loss of greater than 20%. The group was not euthanized, and recovery was allowed. Within a group with greater than 20% weight loss, individuals reaching the individual body weight loss endpoint were euthanized. If the group body weight loss was recovered, dosing may resume. […] Dosing was then resumed with the candidate agent at half the original dose. Animals were monitored as a group. The endpoint of the experiment was a mean tumor weight in control group (or group 1) of 2000 mm^3 or 60 days, whichever comes first. When the endpoint was reached, all the animals were euthanized.

[3] = Group 4: candesartan 50 mg/kg ip qd x 21
[4] = Group 5: candesartan 10 mg/kg ip qd x 21
[5] = Group 6: candesartan 5 mg/kg ip qd x 21
[6] = Group 7: candesartan 1 mg/kg ip qd x 21
[7] = combination: temozolomide 5 po qd x 5 + agent qd x 30 (doses as under E7)
[8] = combination: temozolomide 5 po qd x 5 + agent qd x 30 (doses as under E7), number of animals

CCOc1nc2cccc(C(=O)OC(C)OC(=O)OC3CCCCC3)c2n1Cc1ccc(-c2ccccc2-c2nn[nH]n2)cc1 (stereo not drawn) [Candesartan, candesartan cilexetil]
% TGD (vs Group 1) [1, 3]: 9%
Deaths NTR [1, 3]: 0
Deaths TR [1, 3]: 0
MTV (n) Day 49 [1, 3]: 1 (1) mm^3
Median TTE [1, 3]: 12.7 days
Regressions CR [1, 3]: 1
Regressions PR [1, 3]: 0
Regressions TFS [1, 3]: 1
T − C (TGD vs Group 1) [1, 3]: 1.1 days
% TGD (vs Group 1) [1, 4]: 20%
Deaths NTR [1, 4]: 0
Deaths TR [1, 4]: 0
Median TTE [1, 4]: 13.9 days
Regressions CR [1, 4]: 0
Regressions PR [1, 4]: 0
Regressions TFS [1, 4]: 0
T − C (TGD vs Group 1) [1, 4]: 2.3 days
% TGD (vs Group 1) [1, 5]: 16%
Deaths NTR [1, 5]: 0
Deaths TR [1, 5]: 0
Median TTE [1, 5]: 13.5 days
Regressions CR [1, 5]: 0
Regressions PR [1, 5]: 0
Regressions TFS [1, 5]: 0
T − C (TGD vs Group 1) [1, 5]: 1.9 days
% TGD (vs Group 1) [1, 6]: 7%
Deaths TR [1, 6]: 0
Median TTE [1, 6]: 12.4 days
Regressions CR [1, 6]: 0
Regressions PR [1, 6]: 0
Regressions TFS [1, 6]: 0
T − C (TGD vs Group 1) [1, 6]: 0.8 days
Deaths NTR ([1]; Group 7: candesartan 1 mg/kg ip qd x 21, accidental death on Day 5): 1
efficacy conclusion ([1]; candesartan monotherapy 1, 5, 10, 50 mg/kg i.p. qd×21): not efficacious as monotherapy
MTV(n) Day 29 (median tumor volume) ([2]; combination: temozolomide 5 po qd x 5 + agent qd x 30 (Candesartan 10 ip, Valsartan 30 ip, Carvedilol 200 po, Irbesartan 100 po, Amlodipine 10 ip, Clonidine 1 ip, Olmesartan 10 po, Ramipril 5 po, Enalapril 5 ip, Benazepril 10 ip, Quinapril 15 po, Aliskiren 50 ip, Guanabenz 1 ip, Diltiazem 20 po, Lercanidipine 3 po, Labetalol 10 sc)): 32 (8) mm^3
Deaths NTR (non-treatment-related death) [2, 7]: 0
Deaths TR (treatment-related death) [2, 7]: 0
Mean BW Nadir, day of nadir [2, 7]: Day 3
Regression CR (complete regression) [2, 8]: 0
Regression PR (partial regression) [2, 8]: 6
% TGI (percent tumor growth inhibition, compared to Group 1) ([2]; combination: temozolomide 5 po qd x 5 + agent qd x 30 (doses as under E7), vs Group 1 temozolomide 5 alone): 92%

COc1ccccc1OCCNCC(O)COc1cccc2[nH]c3ccccc3c12 (stereo not drawn) [Carvedilol]
Deaths NTR (non-treatment-related death) [2, 7]: 0
Deaths TR (treatment-related death) [2, 7]: 0

Clc1cccc(Cl)c1N=C1NCCN1 [Clonidine]
Deaths NTR (non-treatment-related death) [2, 7]: 0
Deaths TR (treatment-related death) [2, 7]: 0
Mean BW Nadir, day of nadir [2, 7]: Day 3

CCOC(=O)[C@H](CCc1ccccc1)N[C@@H](C)C(=O)N1CCC[C@H]1C(=O)O [Enalapril]
Deaths NTR (non-treatment-related death) [2, 7]: 0
Deaths TR (treatment-related death) [2, 7]: 0

N=C(N)N/N=C/c1c(Cl)cccc1Cl [Guanabenz]
Deaths NTR (non-treatment-related death) [2, 7]: 0
Deaths TR (treatment-related death) [2, 7]: 0

CC(CCc1ccccc1)NCC(O)c1ccc(O)c(C(N)=O)c1 (stereo not drawn) [Labetalol]
Deaths NTR (non-treatment-related death) [2, 7]: 0
Deaths TR (treatment-related death) [2, 7]: 0

COCCCOc1cc(C[C@@H](C[C@H](N)[C@@H](O)C[C@H](C(=O)NCC(C)(C)C(N)=O)C(C)C)C(C)C)ccc1OC [aliskerin, aliskiren]
Deaths NTR (non-treatment-related death) [2, 7]: 0
Deaths TR (treatment-related death) [2, 7]: 0

CCOC(=O)C1=C(COCCN)NC(C)=C(C(=O)OC)C1c1ccccc1Cl (stereo not drawn) [amlodipine]
Deaths NTR (non-treatment-related death) [2, 7]: 1
Deaths TR (treatment-related death) [2, 7]: 0
Mean BW Nadir, day of nadir [2, 7]: Day 3

CCOC(=O)[C@H](CCc1ccccc1)N[C@H]1CCc2ccccc2N(CC(=O)O)C1=O [benazepril]
Deaths NTR (non-treatment-related death) [2, 7]: 1
Deaths TR (treatment-related death) [2, 7]: 0
combination effect with temozolomide (median group tumor burden at Day 36) [2]: next in rank-order potency

COc1ccc([C@@H]2Sc3ccccc3N(CCN(C)C)C(=O)[C@@H]2OC(C)=O)cc1 [diltiazem]
Deaths NTR (non-treatment-related death) [2, 7]: 0
Deaths TR (treatment-related death) [2, 7]: 0
combination effect with temozolomide (median group tumor burden at Day 36) [2]: modest combination effects

CCCCC1=NC2(CCCC2)C(=O)N1Cc1ccc(-c2ccccc2-c2nnn[nH]2)cc1 [irbesartan]
Deaths NTR (non-treatment-related death) [2, 7]: 0
Deaths TR (treatment-related death) [2, 7]: 0
Mean BW Nadir, day of nadir [2, 7]: Day 3

COC(=O)C1=C(C)NC(C)=C(C(=O)OC(C)(C)CN(C)CCC(c2ccccc2)c2ccccc2)C1c1cccc([N+](=O)[O-])c1 (stereo not drawn) [lercanidipine]
combination effect with temozolomide (median group tumor burden at Day 36) [2]: modest combination effects

CCCc1nc(C(C)(C)O)c(C(=O)O)n1Cc1ccc(-c2ccccc2-c2nnn[nH]2)cc1 [olmesartan]
Mean BW Nadir, day of nadir [2, 7]: Day 3

CCOC(=O)[C@H](CCc1ccccc1)N[C@@H](C)C(=O)N1Cc2ccccc2C[C@H]1C(=O)O [quinapril]
Deaths NTR (non-treatment-related death) [2, 7]: 0
Deaths TR (treatment-related death) [2, 7]: 0
Mean BW Nadir, day of nadir [2, 7]: Day 3
combination effect with temozolomide (median group tumor burden at Day 36) [2]: next in rank-order potency

CCOC(=O)[C@H](CCc1ccccc1)N[C@@H](C)C(=O)N1[C@H](C(=O)O)C[C@@H]2CCC[C@@H]21 [ramipril]
Deaths NTR (non-treatment-related death) [2, 7]: 0
Deaths TR (treatment-related death) [2, 7]: 0
Mean BW Nadir, day of nadir [2, 7]: Day 3
combination effect with temozolomide (median group tumor burden at Day 36) [2]: next in rank-order potency

CCCCC(=O)N(Cc1ccc(-c2ccccc2-c2nnn[nH]2)cc1)[C@H](C(=O)O)C(C)C [valsartan]
Deaths NTR (non-treatment-related death) [2, 7]: 0
Deaths TR (treatment-related death) [2, 7]: 0
